Among the test systems are UO-31; HCT-116; U-251; ACHN; EKVX; SK-MEL-2; NCI-H460; OVCAR-5; NCI-H522; CCRF-CEM; NCI-H226; HCC 2998; LXFL 529; HOP-92; CAKI-1; SK-MEL-5; RXF 393; MDA-MB-435; DU-145.
Holding throughout (assay): growth of human tumour cells (NCI), 48 h

Structures are written as SMILES.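 Exposure lasted 48 hours, with cells grown in 96-well plates and compounds tested at five concentrations. GI50: concentration for 50% inhibition of growth.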 Activity calls are given as the source filed them. Rule as the data show it: active = GI50 up to about 1.1 µM and inactive = higher. Where only a bound is given, the exact number is not on record here.

Take `CCOC(=O)C1=C(Nc2ccc(Cl)cc2Cl)OC/C1=N\NS(=O)(=O)c1ccc(C)cc1`: the GI50 with UO-31 is > 100 µM (inactive); in the assay on HCT-116 it was > 100 µM (inactive); in the assay on U-251, > 100 µM (inactive); with ACHN, > 100 µM (inactive); in the assay with EKVX it was 91.6 µM (inactive); in the assay on SK-MEL-2, > 100 µM (inactive). In addition, the GI50 in the assay on NCI-H460, in the assay on OVCAR-5, in the assay with NCI-H522, in the assay with CCRF-CEM, in the assay on NCI-H226 and in the assay with HCC 2998 was > 100 µM (inactive) in each case. Besides, the GI50 in the assay with LXFL 529, with HOP-92, with CAKI-1, in the assay with SK-MEL-5 and with RXF 393 was > 100 µM (inactive) each time.
`Cc1ccccc1C(=O)c1c(O)c2c(c(O)c1Br)CCCC2`: the GI50 is 17.5 µM (inactive) in the assay with UO-31; 16.6 µM (inactive) in the assay on HCT-116; 16.7 µM (inactive) in the assay on U-251; 17.9 µM (inactive) with ACHN; 17.6 µM (inactive) with EKVX; 16.7 µM (inactive) in the assay with SK-MEL-2. Also, the GI50 with NCI-H460 was 22 µM (inactive); with OVCAR-5 it was 20 µM (inactive); with NCI-H522 it was 10.5 µM (inactive); in the assay on NCI-H226, 25.4 µM (inactive); with HCC 2998, 19.5 µM (inactive); in the assay with LXFL 529, 13 µM (inactive). For the same compound, the GI50 in the assay with HOP-92 was 23.2 µM (inactive); with CAKI-1 it was 20.1 µM (inactive); with SK-MEL-5 it was 18.5 µM (inactive); with RXF 393, 18.7 µM (inactive).
In the case of `CCOC1=CP(=O)(OCC)CC(C)=C1Cl` (stereo unspecified), the GI50 in the assay on UO-31, with HCT-116, in the assay on U-251, with ACHN, in the assay on EKVX and in the assay with SK-MEL-2 was > 100 µM (inactive) each time. Also, the GI50 with NCI-H460, with OVCAR-5, in the assay with NCI-H522, in the assay on CCRF-CEM, with NCI-H226 and in the assay with HCC 2998 was > 100 µM (inactive) each time. For the same compound, the GI50 was > 100 µM (inactive) with LXFL 529; > 100 µM (inactive) in the assay with HOP-92; > 100 µM (inactive) with CAKI-1; > 100 µM (inactive) with SK-MEL-5; > 10 µM (inactive) in the assay with RXF 393.
Consider `COC(=O)C1CCC[C@H]2C(CO)=C(C)C(=O)[C@@H]12` (stereo partly specified), for which the GI50 in the assay on UO-31, in the assay with HCT-116, with U-251, in the assay on ACHN, in the assay on EKVX and in the assay with SK-MEL-2 was > 100 µM (inactive) throughout. For the same compound, the GI50 in the assay with NCI-H460, in the assay on OVCAR-5, in the assay with NCI-H522, in the assay on CCRF-CEM, in the assay on NCI-H226 and with HCC 2998 was > 100 µM (inactive) each time. In addition, the GI50 in the assay on LXFL 529, with HOP-92, in the assay on CAKI-1, with SK-MEL-5 and in the assay with RXF 393 was > 100 µM (inactive) throughout.
With `N#C/N=C(/N)NCO`, the GI50 in the assay with UO-31 is > 100 µM (inactive); in the assay with HCT-116, > 46 µM (inactive); in the assay on U-251, > 53.7 µM (inactive); in the assay on ACHN, > 100 µM (inactive); in the assay on EKVX it was > 100 µM (inactive); with SK-MEL-2, > 100 µM (inactive). Besides, the GI50 is > 78 µM (inactive) in the assay on NCI-H460; > 100 µM (inactive) in the assay on OVCAR-5; > 100 µM (inactive) in the assay with NCI-H522; > 100 µM (inactive) in the assay on CCRF-CEM; > 100 µM (inactive) with NCI-H226; > 100 µM (inactive) in the assay with HCC 2998. Besides, the GI50 in the assay on LXFL 529 was > 63.1 µM (inactive); with HOP-92, > 100 µM (inactive); in the assay on CAKI-1, > 100 µM (inactive); in the assay on SK-MEL-5 it was > 100 µM (inactive); with RXF 393, 16.5 µM (inactive).
Consider `Cc1nc2c(o1)/C(=N\c1ccccc1)c1ccccc1/C2=N/c1ccccc1`, for which the GI50 is 73.6 µM (inactive) in the assay with UO-31; 70.8 µM (inactive) in the assay on HCT-116; 79.3 µM (inactive) in the assay on U-251; 53.6 µM (inactive) with ACHN; 79.1 µM (inactive) in the assay on EKVX; 61.9 µM (inactive) with SK-MEL-2. In addition, the GI50 in the assay on NCI-H460 is 39.4 µM (inactive); in the assay on OVCAR-5 it was > 100 µM (inactive); in the assay on NCI-H522, 33 µM (inactive); in the assay with CCRF-CEM, 58.2 µM (inactive); with HCC 2998, > 100 µM (inactive); in the assay with LXFL 529, 45.3 µM (inactive). Further, the GI50 was 49.2 µM (inactive) in the assay on HOP-92, > 100 µM (inactive) in the assay with CAKI-1, > 100 µM (inactive) in the assay with SK-MEL-5 and > 100 µM (inactive) with RXF 393.
Turning to `Cc1cccc(C(C)(C)C)c1NC(=O)CCc1nnc(S)[nH]1`, the GI50 in the assay with UO-31, in the assay on HCT-116, in the assay on U-251, in the assay on ACHN, in the assay on SK-MEL-2 and with NCI-H460 was > 100 µM (inactive) each time. For the same compound, the GI50 with OVCAR-5, in the assay on NCI-H522, in the assay with CCRF-CEM, in the assay with NCI-H226, in the assay on HCC 2998 and with LXFL 529 was > 100 µM (inactive) throughout. The GI50 in the assay on HOP-92, in the assay with CAKI-1, in the assay with SK-MEL-5 and in the assay with RXF 393 was > 100 µM (inactive) each time.
In the case of `CCCC/C=C1\CCC(CN2CCOCC2)C1=O` (stereo unspecified), the GI50 was 4.22 µM (inactive) with UO-31; 2.04 µM (inactive) in the assay on HCT-116; 3.53 µM (inactive) in the assay on U-251; 3.59 µM (inactive) in the assay with ACHN; 11.2 µM (inactive) with EKVX; 10.1 µM (inactive) with SK-MEL-2. Further, the GI50 in the assay with NCI-H460 was 18.2 µM (inactive); in the assay with OVCAR-5, 17.4 µM (inactive); in the assay with NCI-H522, 0.809 µM (active); in the assay with MDA-MB-435, 10.7 µM (inactive); with DU-145, 16.9 µM (inactive); in the assay with CCRF-CEM it was 0.724 µM (active). Moreover, the GI50 was 8.63 µM (inactive) with NCI-H226; 9.08 µM (inactive) in the assay with HCC 2998; 1.43 µM (inactive) in the assay with LXFL 529; 1.83 µM (inactive) in the assay with HOP-92; 1.92 µM (inactive) with CAKI-1; 12 µM (inactive) with SK-MEL-5. Moreover, in the assay on RXF 393, the GI50 was 1.51 µM (inactive).
On to `N#CCCc1nc2ccc(Br)cc2c(=O)n1-c1ccc(O)c([N+](=O)[O-])c1`, for which the GI50 in the assay with UO-31 was 25.6 µM (inactive); in the assay with U-251, > 10 µM (inactive); in the assay with ACHN, 30.3 µM (inactive); in the assay on EKVX it was 25.5 µM (inactive); with SK-MEL-2 it was 18.6 µM (inactive); with NCI-H460, 27.5 µM (inactive). The GI50 is 46.1 µM (inactive) with OVCAR-5; 15.8 µM (inactive) in the assay on NCI-H522; 19.7 µM (inactive) in the assay on CCRF-CEM; 19.9 µM (inactive) in the assay on NCI-H226; 18.6 µM (inactive) in the assay on HCC 2998; 20 µM (inactive) with LXFL 529. In addition, the GI50 with HOP-92 is 25.4 µM (inactive); in the assay on CAKI-1 it was 32.9 µM (inactive); in the assay on SK-MEL-5 it was 18.4 µM (inactive); in the assay with RXF 393, 18.1 µM (inactive).
On to `CC1=C[C@@H]2Cc3occc3C(C)(C)[C@@H]2CC1`, for which the GI50 is 19.2 µM (inactive) in the assay with UO-31; 19.4 µM (inactive) in the assay with HCT-116; 18.5 µM (inactive) in the assay with U-251; 16 µM (inactive) in the assay with ACHN; 18 µM (inactive) in the assay on EKVX; 10.9 µM (inactive) with SK-MEL-2. The GI50 in the assay with OVCAR-5 was 22.8 µM (inactive); with NCI-H522, 14.7 µM (inactive); in the assay with CCRF-CEM, 18.3 µM (inactive); in the assay on NCI-H226, 17.9 µM (inactive); with HCC 2998, 21.4 µM (inactive); with LXFL 529, 37.5 µM (inactive). The GI50 in the assay with HOP-92 was 19.5 µM (inactive); in the assay on CAKI-1 it was 23.4 µM (inactive); in the assay on SK-MEL-5, 17.9 µM (inactive); with RXF 393, 18.7 µM (inactive).
Consider `Cc1cc(Cl)cc2c1NC(=O)C2(O)C(C)C(=O)c1ccc(Cl)cc1` (stereo unspecified), for which the GI50 in the assay with UO-31 is > 100 µM (inactive); in the assay with HCT-116, > 74.1 µM (inactive); with U-251, 72.4 µM (inactive); in the assay with ACHN it was > 100 µM (inactive); in the assay with EKVX it was > 81.5 µM (inactive); in the assay on SK-MEL-2, > 100 µM (inactive). For the same compound, the GI50 was > 100 µM (inactive) in the assay with NCI-H460; > 100 µM (inactive) in the assay on OVCAR-5; 39.9 µM (inactive) in the assay with NCI-H522; 30.2 µM (inactive) in the assay on CCRF-CEM; > 60.1 µM (inactive) with NCI-H226; > 100 µM (inactive) in the assay on HCC 2998. The GI50 with LXFL 529 was > 66.5 µM (inactive); with HOP-92 it was 33.9 µM (inactive); with CAKI-1, > 92.5 µM (inactive); in the assay with SK-MEL-5, 27.7 µM (inactive); in the assay on RXF 393 it was 47.8 µM (inactive).
For `COC(=O)/C(=N/O)C(C(=O)OC)C(=O)C(=O)Nc1c(Cl)cc(C)cc1S(=O)(=O)O` (stereo unspecified), the GI50 in the assay on UO-31 was > 100 µM (inactive); with HCT-116, 43.8 µM (inactive); with U-251, > 100 µM (inactive); in the assay with ACHN, > 100 µM (inactive); with EKVX it was > 100 µM (inactive); with SK-MEL-2, > 100 µM (inactive). The GI50 in the assay on NCI-H460 was 41.5 µM (inactive); in the assay with OVCAR-5, > 100 µM (inactive); in the assay with NCI-H522, 33.5 µM (inactive); in the assay on CCRF-CEM it was 42.8 µM (inactive); in the assay with NCI-H226, > 100 µM (inactive); in the assay with HCC 2998, > 100 µM (inactive). Also, the GI50 in the assay with LXFL 529, in the assay with HOP-92, in the assay on CAKI-1, in the assay on SK-MEL-5 and in the assay with RXF 393 was > 100 µM (inactive) in each case.
